In patent US6242564A (priority 1992, dated 2001):

What was measured:
HTLV-III virus (HIV) = experiment: Blockade of viral infection of human T cells (reverse transcriptase activity); assay type: cell-based; conditions: for Rank order of potencies in inhibiting receptor binding and viral infectivity: FIGS. 2c, 3
Procedure: The treated cells were then panned on a plastic Petri dish that was coated with goat [F(ab')2 ] anti-mouse immunoglobulin (Sero Lab, Eastbury, Mass.) for 20 min at 4° C. The nonadherent cells were then removed, washed, and analyzed for reactivity by flow cytometry. […] Cells were then cultured with phytohemagglutinin (1 μg/ml) for 72 hrs and exposed to HIV as described below. Infected cells were phenotypically characterized when cytotoxicity assays were performed.
The HTLV-III virus used for infection was isolated from an interleukin 2 (IL-2)-dependent cultured T-cell line established from fresh AIDS patient material and passaged into HuT 78, permissive IL-2-independent cell line.
Each determination was performed in duplicate.

[1] = tested on: T4 antigen (gp 120 receptor) on rat hippocampal membranes; experiment: Displacement of specific 125I-gp 120 binding to fresh rat hippocampal (brain) membranes
Procedure: ETLV-IIIb isolate of HIV was propaged in H9 cells, and the gp 120 was isolated by immunoaffinity chromatography and preparative NaDodSO4 /PAGE. Purified gp 120 was labeled with 125 by the chloramine-T method.
Fresh human, monkey, and rat hippocampus were quickly homogenized (POLYTRON, Brinkmann Instruments) in 100 vol. of ice-cold 50 mM Hepes (pH 7.4). The membranes collected by centrifugation (15,000×g) were washed in the original buffer volume and were used fresh or stored at -70° C. Before use, brain membranes and highly purified T cells were preincubated for 15-30 min in phosphate-buffered saline (PBS). Preincubated membranes derived from 2 mg (initial we weight) of brain (α100 μg of protein) were incubated with 28,000 cpm of 125I -gp 120 for 1 hour at 37° C. in 200 μl (final volume) of 50 mM Hepes containing 0.1% bovine serum albumin and the peptidase inhibitors bacitracin (0.005%), aprotinin (0.005%), leupeptin (0.001%), and chymostatin (0.001%). Incubations were rapidly vacuum-filtered and counted to determine the receptor-bound material.
Each determination was performed in triplicate; the results of one experiment, which was performed three times with similar results, is shown. Specific binding (FIG. 2b) displaceable by 10 μg/ml of OKT4 and 4A ranged between 27 and 85% of total binding, which was 2,201±74 cpm in the experiment shown.

[2] = molecular target: HIV viral receptors, such as T4 (Homo sapiens, UniProt P01730); experiment: General statements of receptor binding / activity, test not specified
HIV = conditions: in vitro; cited from earlier work
gp 120 = conditions: in vitro; cited from earlier work

With C[C@@H](N)C(=O)N[C@@H](CO)C(=O)N[C@H](C(=O)N[C@H](C(=O)N[C@H](C(=O)N[C@@H](CC(N)=O)C(=O)N[C@@H](Cc1ccc(O)cc1)C(=O)N[C@H](C(N)=O)[C@@H](C)O)[C@@H](C)O)[C@@H](C)O)[C@@H](C)O [D-[Ala]1-peptide T-amide] the “Rank order of potencies in inhibiting receptor binding and viral infectivity” value (HTLV-III virus (HIV)) was “D-[Ala]1 -peptide T-amide>D-[Ala]1 -peptide T>peptide T>D-[Thr]8 -peptide T-amide”.
For C[C@H](N)C(=O)N[C@@H](CO)C(=O)N[C@H](C(=O)N[C@H](C(=O)N[C@H](C(=O)N[C@@H](CC(N)=O)C(=O)N[C@@H](Cc1ccc(O)cc1)C(=O)N[C@@H](C(N)=O)[C@H](C)O)[C@@H](C)O)[C@@H](C)O)[C@@H](C)O [D-[Thr]8-peptide T-amide], the “Rank order of potencies in inhibiting receptor binding and viral infectivity” value (HTLV-III virus (HIV)) was “D-[Ala]1 -peptide T-amide>D-[Ala]1 -peptide T>peptide T>D-[Thr]8 -peptide T-amide”, the “Concentration required for significant inhibition of viral infection, relative to the active peptides” value (HTLV-III virus (HIV); human T cells) was 100 fold and the “Blockade of viral infectivity (in words)” value (HTLV-III virus (HIV); human T cells, FIG. 3) was “greatly reduced blockade of viral infection”. The “Loss of receptor binding activity versus peptide T” value [1] was at least 100 fold.
In the case of “CYS-THR-THR-ASN-TYR-THR-CYS (CTTNYTC; printed: CYS-THR-THR-ASN-TYR-THR-CYS) [seven amino acid peptide, core with added cysteines]”, the “Activity (test not specified)” value [2] was “also active”.
For VIP: Vasoactive Intestinal Peptide, the “HIV replication in cell culture” value (HIV) is given as “inhibit” and the “Binding of gp 120 to brain tissue” value (gp 120) is given as “inhibit”.
